Assay results taken from PubChem BioAssay AID256 (DTP/NCI, 2004).
Several values for one entry are separate records, joined by “and”; a condition that tells them apart may be missing. Equal values may be shown once. Toxic doses and inconclusive results are not listed. Rule for the calls: active = survival T/C of 150% or more; inactive = T/C below 125% in these data.

System: CD2F1 mice, L1210 leukemia ip, survival T/C
Experiment: NCI In Vivo Anticancer Drug Screen. Data for tumor model L1210 Leukemia (intraperitoneal) in CD2F1 (CDF1) mice
Settings: higher = longer survival
How it was run: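 Vehicle-treated tumor-bearing mice served as controls (C) for compound-treated mice (T). Reported figure is T divided by C.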

[1] = endpoint: mean survival time, dose: 100.0 mg/kg/injection, schedule: Q04DX003 (ip), vehicle: saline with Tween-80
[2] = endpoint: mean survival time, dose: 200.0 mg/kg/injection, schedule: Q04DX003 (ip), vehicle: saline with Tween-80
[3] = endpoint: mean survival time, dose: 400.0 mg/kg/injection, schedule: Q04DX003 (ip), vehicle: saline with Tween-80
[4] = endpoint: mean survival time, dose: 25.0 mg/kg/injection, schedule: Q01DX009 (ip), vehicle: saline with Tween-80
[5] = endpoint: mean survival time, dose: 50.0 mg/kg/injection, schedule: Q01DX009 (ip), vehicle: saline with Tween-80
[6] = endpoint: mean survival time, dose: 100.0 mg/kg/injection, schedule: Q01DX009 (ip), vehicle: saline with Tween-80
[7] = endpoint: mean survival time, dose: 100.0 mg/kg/injection, schedule: Q01DX001 (ip), vehicle: saline
[8] = endpoint: mean survival time, dose: 100.0 mg/kg/injection, schedule: Q01DX001 (ip), vehicle: saline with Tween-80
[9] = endpoint: mean survival time, dose: 200.0 mg/kg/injection, schedule: Q01DX001 (ip), vehicle: saline with Tween-80
[10] = endpoint: mean survival time, dose: 400.0 mg/kg/injection, schedule: Q01DX001 (ip), vehicle: saline with Tween-80
[11] = endpoint: mean survival time, dose: 200.0 mg/kg/injection, schedule: Q01DX009 (ip), vehicle: saline with Tween-80
[12] = endpoint: mean survival time, dose: 400.0 mg/kg/injection, schedule: Q01DX009 (ip), vehicle: saline with Tween-80
[13] = endpoint: mean survival time, dose: 100.0 mg/kg/injection, schedule: Q04DX002 (ip), vehicle: saline with Tween-80
[14] = endpoint: mean survival time, dose: 200.0 mg/kg/injection, schedule: Q04DX002 (ip), vehicle: saline with Tween-80
[15] = endpoint: mean survival time, dose: 400.0 mg/kg/injection, schedule: Q04DX002 (ip), vehicle: saline with Tween-80

Measured: T/C

CC(=O)OCC(OC(C)=O)C(OC(C)=O)C(OC(C)=O)C(S)S (stereo not given)
inactive: [1] 103 % of control | [2] 109 % of control | [3] 101 % of control

CC1(C)C2CC=C(CCOC(=S)S)C1C2.[Ni] (stereo not given)
inactive: [4] 96 % of control | [5] 90 % of control | [6] 96 % of control | [1] 91 % of control | [2] 93 % of control

NC1(C(=O)O)CCCC1.[Pb]
inactive: [7] 90 % of control

CN(C)c1ccc(N=C2CC(=Nc3ccc(N(C)C)cc3)c3ccccc3C2=O)cc1
inactive: endpoint: mean survival time, dose: 100.0 mg/kg/injection, schedule: Q04DX003 (ip), vehicle: saline 104 % of control | endpoint: mean survival time, dose: 200.0 mg/kg/injection, schedule: Q04DX003 (ip), vehicle: saline 96 % of control | endpoint: mean survival time, dose: 400.0 mg/kg/injection, schedule: Q04DX003 (ip), vehicle: saline 101 % of control

O=C1c2ccccc2C(=O)N1CCc1c[nH]c2ccccc12
inactive: [8] 102 % of control | [9] 104 % of control | [10] 104 % of control

c1ccc(Nc2ccc(N=Nc3nc4ccccc4s3)cc2)cc1
inactive: [8] 93 % of control | [9] 97 % of control | [10] 97 % of control

N#[O+].O=[N+]([O-])O.[Co].[NH2-].[NH2-].[NH2-].[NH2-].[NH2-]
inactive: endpoint: mean survival time, dose: 6.25 mg/kg/injection, schedule: Q04DX002 (ip), vehicle: saline with Tween-80 95 % of control | endpoint: mean survival time, dose: 12.5 mg/kg/injection, schedule: Q04DX002 (ip), vehicle: saline with Tween-80 88 % of control | endpoint: mean survival time, dose: 25.0 mg/kg/injection, schedule: Q04DX002 (ip), vehicle: saline with Tween-80 98 % of control

Nc1n[n+](-c2ccccc2)no1
inactive: endpoint: mean survival time, dose: 1.56 mg/kg/injection, schedule: Q01DX009 (ip), vehicle: water 106 % of control | endpoint: mean survival time, dose: 3.12 mg/kg/injection, schedule: Q01DX009 (ip), vehicle: water 97 % of control and 100 % of control | endpoint: mean survival time, dose: 6.25 mg/kg/injection, schedule: Q01DX009 (ip), vehicle: water 102 % of control and 105 % of control | endpoint: mean survival time, dose: 12.5 mg/kg/injection, schedule: Q01DX009 (ip), vehicle: water 101 % of control and 108 % of control | endpoint: mean survival time, dose: 25.0 mg/kg/injection, schedule: Q01DX009 (ip), vehicle: water 121 % of control and 111 % of control | endpoint: mean survival time, dose: 50.0 mg/kg/injection, schedule: Q01DX009 (ip), vehicle: water 94 % of control

O=[N+]([O-])O
inactive: [5] 86 % of control | [6] 86 % of control

Cc1ccc(NS(=O)(=O)c2ccc([N+](=O)[O-])cc2)cc1
inactive: [6] 93 % of control | [11] 98 % of control | [12] 105 % of control

CC1(C)Oc2[nH]c(=O)n(-c3ccc(Cl)cc3)c(=O)c2C1c1ccc(Cl)cc1 (stereo not given)
inactive: [13] 102 % of control | [14] 105 % of control | [15] 109 % of control

CCCCS(=O)(=O)c1ccc(Cl)cc1
inactive: [1] 96 % of control | [2] 100 % of control | [3] 105 % of control

C[n+]1c(-c2cccc(OCCOCCOc3cccc(-c4c5cc(N)ccc5c5ccc(N)cc5[n+]4C)c3)c2)c2cc(N)ccc2c2ccc(N)cc21
inactive: endpoint: median survival time, dose: 1.0 mg/kg/injection, schedule: Q01DX009 (ip), vehicle: water 104 % of control | endpoint: median survival time, dose: 2.0 mg/kg/injection, schedule: Q01DX009 (ip), vehicle: saline with Tween-80 101 % of control | endpoint: median survival time, dose: 2.0 mg/kg/injection, schedule: Q01DX009 (ip), vehicle: water 114 % of control and 121 % of control | endpoint: median survival time, dose: 4.0 mg/kg/injection, schedule: Q01DX009 (ip), vehicle: saline with Tween-80 102 % of control | endpoint: median survival time, dose: 4.0 mg/kg/injection, schedule: Q01DX009 (ip), vehicle: water 114 % of control | endpoint: median survival time, dose: 8.0 mg/kg/injection, schedule: Q01DX009 (ip), vehicle: saline with Tween-80 104 % of control | endpoint: median survival time, dose: 8.0 mg/kg/injection, schedule: Q01DX009 (ip), vehicle: water 123 % of control | endpoint: median survival time, dose: 16.0 mg/kg/injection, schedule: Q01DX009 (ip), vehicle: saline with Tween-80 105 % of control | endpoint: median survival time, dose: 32.0 mg/kg/injection, schedule: Q01DX009 (ip), vehicle: saline with Tween-80 102 % of control

OCC1OC(n2cnc3c(NCCc4ccc(O)c(O)c4)ncnc32)C(O)C1O (stereo not given)
inactive: endpoint: mean survival time, dose: 12.5 mg/kg/injection, schedule: Q01DX005 (ip), vehicle: saline with Tween-80 104 % of control | endpoint: mean survival time, dose: 25.0 mg/kg/injection, schedule: Q01DX005 (ip), vehicle: saline with Tween-80 109 % of control | endpoint: mean survival time, dose: 50.0 mg/kg/injection, schedule: Q01DX005 (ip), vehicle: saline with Tween-80 116 % of control

O=C(Nc1ncnc2c1[nH]c(=O)n2C1OC(CO)C2OC21)c1ccccc1 (stereo not given)
inactive: endpoint: mean survival time, dose: 12.5 mg/kg/injection, schedule: Q01DX005 (ip), vehicle: distilled water + Tween-80 92 % of control | endpoint: mean survival time, dose: 25.0 mg/kg/injection, schedule: Q01DX005 (ip), vehicle: distilled water + Tween-80 100 % of control | endpoint: mean survival time, dose: 50.0 mg/kg/injection, schedule: Q01DX005 (ip), vehicle: distilled water + Tween-80 95 % of control | endpoint: mean survival time, dose: 100.0 mg/kg/injection, schedule: Q01DX005 (ip), vehicle: distilled water + Tween-80 90 % of control | endpoint: mean survival time, dose: 200.0 mg/kg/injection, schedule: Q01DX005 (ip), vehicle: distilled water + Tween-80 93 % of control

CCOc1ccc2c(c1)c(CC(=O)O)c(C)n2C
inactive: endpoint: mean survival time, dose: 100.0 mg/kg/injection, schedule: Q01DX001 (ip), vehicle: other 95 % of control | endpoint: mean survival time, dose: 200.0 mg/kg/injection, schedule: Q01DX001 (ip), vehicle: other 98 % of control | endpoint: mean survival time, dose: 400.0 mg/kg/injection, schedule: Q01DX001 (ip), vehicle: other 98 % of control

C=C1N(C)c2ccccc2C1(C)C
inactive: endpoint: mean survival time, dose: 0.78 mg/kg/injection, schedule: Q01DX009 (ip), vehicle: saline with Tween-80 104 % of control | endpoint: mean survival time, dose: 1.56 mg/kg/injection, schedule: Q01DX009 (ip), vehicle: saline with Tween-80 101 % of control | endpoint: mean survival time, dose: 3.12 mg/kg/injection, schedule: Q01DX009 (ip), vehicle: saline with Tween-80 97 % of control | endpoint: mean survival time, dose: 6.25 mg/kg/injection, schedule: Q01DX009 (ip), vehicle: saline with Tween-80 98 % of control | endpoint: mean survival time, dose: 12.5 mg/kg/injection, schedule: Q01DX009 (ip), vehicle: saline with Tween-80 92 % of control and 100 % of control | [4] 94 % of control | [5] 94 % of control

O=C(Nc1ccccc1Cl)Nc1ccccc1Cl
inactive: [13] 90 % of control | [14] 94 % of control | [15] 94 % of control

CCOC(=O)/C=C/C1CCCCC1
inactive: [5] 96 % of control | [6] 104 % of control | [11] 96 % of control

CCCC(C)(CC)NC(=O)OCC (stereo not given)
inactive: [7] 107 % of control | endpoint: mean survival time, dose: 200.0 mg/kg/injection, schedule: Q01DX001 (ip), vehicle: saline 111 % of control | endpoint: mean survival time, dose: 400.0 mg/kg/injection, schedule: Q01DX001 (ip), vehicle: saline 111 % of control

[Br][Ge]([c]1ccccc1)([c]1ccccc1)[c]1ccccc1
inactive: [5] 91 % of control | [6] 91 % of control | [11] 86 % of control

Cc1noc2nccnc12
inactive: [5] 103 % of control | [6] 101 % of control | [1] 94 % of control

Cn1c(=O)cc(C=Nc2ccc(O)cc2)c2ccccc21
inactive: [6] 94 % of control | [11] 90 % of control | [12] 97 % of control

Cc1ncc(COP(=O)(O)O)c(C=NC(CCCCN)C(=O)O)c1O.O.[Cu] (stereo not given)
inactive: endpoint: mean survival time, dose: 12.5 mg/kg/injection, schedule: Q01DX001 (ip), vehicle: saline with Tween-80 98 % of control | endpoint: mean survival time, dose: 25.0 mg/kg/injection, schedule: Q01DX001 (ip), vehicle: saline with Tween-80 92 % of control | endpoint: mean survival time, dose: 50.0 mg/kg/injection, schedule: Q01DX001 (ip), vehicle: saline with Tween-80 98 % of control

ClC1C(Cl)(Cl)C1(Cl)Cl
inactive: endpoint: mean survival time, dose: 37.5 mg/kg/injection, schedule: Q01DX001 (ip), vehicle: saline 100 % of control | endpoint: mean survival time, dose: 75.0 mg/kg/injection, schedule: Q01DX001 (ip), vehicle: saline 102 % of control | endpoint: mean survival time, dose: 150.0 mg/kg/injection, schedule: Q01DX001 (ip), vehicle: saline 95 % of control

N#CCCC(=O)c1nc(N)nc(N)n1
inactive: [5] 91 % of control | [6] 91 % of control | [11] 91 % of control

CC(C)(C)C=O
inactive: endpoint: mean survival time, dose: 100.0 mg/kg/injection, schedule: Q01DX009 (ip), vehicle: saline 95 % of control | endpoint: mean survival time, dose: 200.0 mg/kg/injection, schedule: Q01DX009 (ip), vehicle: saline 102 % of control | endpoint: mean survival time, dose: 400.0 mg/kg/injection, schedule: Q01DX009 (ip), vehicle: saline 96 % of control
